Here are results for one compound from patent US7538094B2, “Composition containing ribavirin and use thereof” (Three Rivers Pharmacueticals, LLC, priority 2002, dated 2009).

Structures are written as SMILES.

For series [1] the following is noted: cited from earlier work.
The nature of series [2]: Angle of repose (flowability). The following applies: sample passed through 12 mesh screen, funnel with 1 cm aperture. The series is classed as physicochemical. From the text:
Another measure of flowability can be made by determining a material's angle of repose. The angle of repose is a standard test in the pharmaceutical industry to establish the relative flowability of a solid pharmaceutical formulation. (See, e.g., Lachman et al., “The Theory and Practice of Industrial Pharmacy” 3rd Ed. (1986) pp 67-68). A greater angle of repose means a less flowable material. Remington's Pharmaceuticals Sciences lists the angle of repose for glass beads (a high flowing material) at 23 degrees and for granular limestone (a poor flowing material) at 64 degrees. Cohesive materials can be as high as 90 degrees. (See Remington's Pharmaceutical Sciences, 19th Ed. Mack Publishing Co., (1995) p. 1607).
Angle of repose data was collected for ribavirin composition made in accordance with Examples 1 and 3 and compared to bulk ribavirin and a commercial ribavirin product. In determining the angle of repose for the compositions of the present invention and comparative examples thereto, a sample was passed through a 12 mesh screen to break up agglomerates. […] The funnel height was then measured, as well as the diameter (width) of the sample. […] The angle of repose for a given sample was calculated by taking the inverse tangent of the following equation: Tan (a)=2H/W, where H is the height of the funnel from the paper and W is the averaged diameter of the poured sample at its base.

The conditions of series [3]: cited from earlier work. The source holds these as a separate data set.

On to `NC(=O)c1ncn([C@@H]2O[C@H](CO)[C@@H](O)[C@H]2O)n1` [ribavirin, 1-β-D-ribofuranosyl-1H-1,2,4-triazole-3-carboxamide], for which the bioavailability with food entry in series [1] (administered with a high fat meal) is on record as “increase significantly”. For the same compound, in series [1] (in vivo, after multiple oral dosing (steady state)), the biological half-life result is reported as “ca. 298 hours”. In series [1] (oral administration, Physician's Desk Reference), the “bioavailability (AUC) versus dose” value is reported as “increases linearly with the dose”. In series [1] (oral administration, curvilinear, reaching an asymptote, Physician's Desk Reference), the “maximum concentration of the drug in vivo (Cmax) versus dose” value was “does not increase linearly with the dose”. In series [2] (Trial 1), this compound registered a Repose Angle, Trial 1 of 44 °. This compound displayed a Repose Angle, Trial 2 in series [2] (Trial 2) of 42 °. For the same compound, the solubility result in series [3] is listed as “water-soluble”.
